Laboratory results reported in PMC9867241, “Antioxidant and Cytotoxic Activity of New Polyphenolic Derivatives of Quinazolin-4(3H)-one: Synthesis and In Vitro Activities Evaluation” (Pharmaceutics, 2022).
In brackets after ≈: the same amount, converted by molar mass.

Columns and labels:
[1] = Cupric reducing antioxidant capacity (CUPRAC) assay; set-up: concentration or dose not given beside the values; settings: for CUPRAC, % of Activity of Trolox: relative to Trolox; for CUPRAC, % of Activity of Ascorbic Acid: relative to ascorbic acid
Method: The ability to donate electrons was evaluated for the compounds 5a–d and 6a–d, by the CUPRAC (CUPric reducing antioxidant capacity) method. The absorbance was measured against a blank sample, at λ = 450 nm. The assay was performed based on our group’s previous report by the adaptation of the initial report of Alam et al., Özyürek et al. and Apak et al.. With the use of Equation (4), the cupric ion reduction by compounds 5a–d and 6a–d was expressed as a percentage of the reference compound activity.
The Cu^2+ ions are reduced to Cu^+ ions by the electron-donating compounds. The Cu^+ ions are chelated by neocuproine, giving a colored complex with absorbance proportional to the quantity of Cu^+ ions that resulted.

[2] = DPPH˙ radical scavenging assay
Method: (§1) The stock solutions (1 mg/mL) of the tested compounds and the controls were obtained, by dissolving the substances in dimethyl sulfoxide (DMSO). Using Jasco V-530, an UV-VIS spectrophotometer (Jasco International Co., Ltd., Tokyo, Japan), we performed the colorimetric determinations in low-volume single-use 10 mm width cuvettes.
(§2) The assays were performed in triplicate and the results are presented as averages for each assay.
The DPPH˙ radical scavenging assay is based on the transfer of one hydrogen from the analyzed compound to the violet stable free radical DPPH˙ (2,2-diphenyl-1-picrylhydrazyl), as we convert it into a yellow compound. The absorbance of the reagent mixed with samples presented inversely proportional values to the amount of DPPH˙ neutralized. The absorbance of the reagent was measured at λ = 517 nm, according to our previous reports. The assay was made in the presence of various concentrations of samples. The used protocol is based on the report of Brand-Williams et al..

[3] = Fe^2+ chelation assay (ferrozine competition)
Method: In the protocol used for evaluating the Fe^2+ chelating ability of the compounds, the absorbances of the solutions were determined at λ = 562 nm, against a blank sample. The method was adapted from the initial report of Benzie and Strain et al., which was previously reported by our group. Using Equation (5), we calculated the iron chelation capacities of the 5a–d and 6a–d compounds:(5) iron chelation (%)=control absorbance−sample absorbance/control absorbance×100
The chelating capacity of the tested compounds of Fe^2+ was evaluated based on their competition for Fe^2+ with ferrozine.

[4] = ABTS˙+ radical scavenging assay
Method: as §1, §2

[5] = Cu^2+ chelation assay (murexide competition)
Text: With murexide as a chromophoric chelator, we performed the protocol followed for the evaluation of Cu^2+ chelating activities of the compounds using an adaptation of the method presented by Cesari et al. and Wu et al.. Using Equation (6), we calculated the copper chelation capacities of the 5a–d and 6a–d compounds:(6) copper chelation (%)=(A485/A520)control−(A485/A520)sample/(A485/A520)control×100
The evaluation of the Cu^2+ chelation activity of compounds was made based on the competition for Cu^2+ with murexide. The chelating activity of compounds for the cupric ions found in the current assay is significant for the pyrogallol derivatives, being quite close to EDTA-Na2.

[6] = Phosphomolybdate assay for total antioxidant capacity (TAC); set-up: concentration or dose not given beside the values; settings: for TAC, % of Activity of Trolox: relative to Trolox; for TAC, % of Activity of Ascorbic Acid: relative to ascorbic acid
Text: Using the phosphomolybdate assay, we determined the total antioxidant capacity (TAC) of the tested compounds. We measured the solutions’ absorbances against a blank sample at λ = 695 nm, using a previously reported procedure by our group, based on initial literature reports. Using Equation (4), we calculated the TAC of 5a–d and 6a–d compounds.
At acidic pH, the tested compounds transfer one electron to Mo^6+ to reduce it to Mo^5+.

SMILES: CC(=NNC(=O)CSc1nc2ccccc2c(=O)n1Cc1ccccc1)c1ccc(O)cc1O [Compound 6b, 2-((3-Benzyl-4-oxo-3,4-dihydroquinazolin-2-yl)thio)-N’-(1-(2,4-dihydroxyphenyl)ethylidene)acetohydrazide]
- CUPRAC, % of Activity of Trolox [1]: 22.63%
- CUPRAC, % of Activity of Ascorbic Acid [1]: 23.74%
- IC50 [2]: > 30 µM
- IC50 (DPPH˙ scavenging) [2]: >15 µg/mL
- % of DPPH˙ Scavenging ([2]; 1.25 µg/mL): - (- represents less than 5%)
- % of DPPH˙ Scavenging ([2]; 2.5 µg/mL): - (- represents less than 5%)
- % of DPPH˙ Scavenging ([2]; 3.75 µg/mL): - (- represents less than 5%)
- % of DPPH˙ Scavenging ([2]; 5 µg/mL): - (- represents less than 5%)
- % of DPPH˙ Scavenging ([2]; 7.5 µg/mL): - (- represents less than 5%)
- % of DPPH˙ Scavenging ([2]; 10 µg/mL): - (- represents less than 5%)
- % of DPPH˙ Scavenging ([2]; 12.5 µg/mL): - (- represents less than 5%)
- % of DPPH˙ Scavenging ([2]; 15 µg/mL): 11.59%
- Ferrous ions Chelation Capacity (%) ([3]; 17.70 µg/mL): - (- represents less than 5%)
- Ferrous ions Chelation Capacity (%) ([3]; 20.59 µg/mL): - (- represents less than 5%)
- Ferrous ions Chelation Capacity (%) ([3]; 29.41 µg/mL): - (- represents less than 5%)
- Ferrous ions Chelation Capacity (%) ([3]; 44.11 µg/mL): - (- represents less than 5%)
- Ferrous ions Chelation Capacity (%) ([3]; 58.82 µg/mL): - (- represents less than 5%)
- Ferrous ions Chelation Capacity (%) ([3]; 88.23 µg/mL): - (- represents less than 5%)
- Ferrous ions Chelation Capacity (%) ([3]; 117.64 µg/mL): - (- represents less than 5%)
- Ferrous ions Chelation Capacity (%) ([3]; 257.46 µg/mL): - (- represents less than 5%)
- Ferrous ions Chelation Capacity (%) ([3]; 343.28 µg/mL): - (- represents less than 5%)
- IC50 [4]: 8.7 µM
- IC50 (ABTS˙^+ scavenging) [4]: 4.13 µg/mL (≈ 8.7 µM)
- % of ABTS˙^+ Scavenging ([4]; 0.83 µg/mL): 26.26%
- % of ABTS˙^+ Scavenging ([4]; 1.67 µg/mL): 33.32%
- % of ABTS˙^+ Scavenging ([4]; 3.33 µg/mL): 44.60%
- % of ABTS˙^+ Scavenging ([4]; 4.99 µg/mL): 55.88%
- % of ABTS˙^+ Scavenging ([4]; 6.66 µg/mL): 68.23%
- % of ABTS˙^+ Scavenging ([4]; 9.99 µg/mL): 90.98%
- % of ABTS˙^+ Scavenging ([4]; 13.32 µg/mL): + (+ represents more than 95%)
- Cupric ions Chelation Capacity (%) ([5]; 3.36 µg/mL): 6.77%
- Cupric ions Chelation Capacity (%) ([5]; 8.40 µg/mL): 17.17%
- Cupric ions Chelation Capacity (%) ([5]; 16.80 µg/mL): 30.49%
- TAC, % of Activity of Trolox [6]: 101.03%
- TAC, % of Activity of Ascorbic Acid [6]: 52.36%

SMILES: CCn1c(SCC(=O)NN=C(C)c2ccc(O)cc2O)nc2ccccc2c1=O [Compound 6c, N’-(1-(2,4-dihydroxyphenyl)ethylidene)-2-((3-ethyl-4-oxo-3,4-dihydroquinazolin-2-yl)thio)acetohydrazide]
- CUPRAC, % of Activity of Trolox [1]: 29.09%
- CUPRAC, % of Activity of Ascorbic Acid [1]: 30.52%
- IC50 [2]: > 30 µM
- IC50 (DPPH˙ scavenging) [2]: >15 µg/mL
- % of DPPH˙ Scavenging ([2]; 1.25 µg/mL): - (- represents less than 5%)
- % of DPPH˙ Scavenging ([2]; 2.5 µg/mL): - (- represents less than 5%)
- % of DPPH˙ Scavenging ([2]; 3.75 µg/mL): - (- represents less than 5%)
- % of DPPH˙ Scavenging ([2]; 5 µg/mL): - (- represents less than 5%)
- % of DPPH˙ Scavenging ([2]; 7.5 µg/mL): - (- represents less than 5%)
- % of DPPH˙ Scavenging ([2]; 10 µg/mL): - (- represents less than 5%)
- % of DPPH˙ Scavenging ([2]; 12.5 µg/mL): 10.11%
- % of DPPH˙ Scavenging ([2]; 15 µg/mL): 14.89%
- Ferrous ions Chelation Capacity (%) ([3]; 17.70 µg/mL): - (- represents less than 5%)
- Ferrous ions Chelation Capacity (%) ([3]; 20.59 µg/mL): - (- represents less than 5%)
- Ferrous ions Chelation Capacity (%) ([3]; 29.41 µg/mL): - (- represents less than 5%)
- Ferrous ions Chelation Capacity (%) ([3]; 44.11 µg/mL): - (- represents less than 5%)
- Ferrous ions Chelation Capacity (%) ([3]; 58.82 µg/mL): - (- represents less than 5%)
- Ferrous ions Chelation Capacity (%) ([3]; 88.23 µg/mL): - (- represents less than 5%)
- Ferrous ions Chelation Capacity (%) ([3]; 117.64 µg/mL): - (- represents less than 5%)
- Ferrous ions Chelation Capacity (%) ([3]; 257.46 µg/mL): - (- represents less than 5%)
- Ferrous ions Chelation Capacity (%) ([3]; 343.28 µg/mL): - (- represents less than 5%)
- IC50 [4]: 9.84 µM
- IC50 (ABTS˙^+ scavenging) [4]: 4.06 µg/mL (≈ 9.84 µM)
- % of ABTS˙^+ Scavenging ([4]; 0.83 µg/mL): 29.08%
- % of ABTS˙^+ Scavenging ([4]; 1.67 µg/mL): 34.73%
- % of ABTS˙^+ Scavenging ([4]; 3.33 µg/mL): 43.19%
- % of ABTS˙^+ Scavenging ([4]; 4.99 µg/mL): 54.47%
- % of ABTS˙^+ Scavenging ([4]; 6.66 µg/mL): 68.58%
- % of ABTS˙^+ Scavenging ([4]; 9.99 µg/mL): 91.60%
- % of ABTS˙^+ Scavenging ([4]; 13.32 µg/mL): + (+ represents more than 95%)
- Cupric ions Chelation Capacity (%) ([5]; 3.36 µg/mL): 7.47%
- Cupric ions Chelation Capacity (%) ([5]; 8.40 µg/mL): 16.75%
- Cupric ions Chelation Capacity (%) ([5]; 16.80 µg/mL): 26.72%
- TAC, % of Activity of Trolox [6]: 110.05%
- TAC, % of Activity of Ascorbic Acid [6]: 57.03%
